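The compound was tested at five concentrations on cells cultured in 96-well plates, with a 48-hour exposure period. Here, GI50 denotes the concentration required for 50% inhibition of growth. TGI is the concentration that stops growth completely.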 Bounds are passed on as bounds.

By TGI is commonly meant the concentration at which net growth stops. By GI50 is commonly meant the concentration giving 50% growth inhibition.

In one assay the test system is HCC-2998 colon. The assay can be described thus: DTP human tumour cell line panel, 48 h.
`Cc1ccccc1S(=O)(=O)OC1NS(=O)(=O)c2ccccc21` (configuration not stated) showed a TGI of over 100 µM.

With `Nc1ncnc2n[nH]c(Nc3ccc(F)cc3)c12`, the GI50 was 51.9 µM and the TGI was over 100 µM.

Consider `CCN(CC)c1ccc(-c2cc(-c3cc(OC)c(OC)c(OC)c3)nc(N3CCOCC3)c2C#N)cc1`, for which the GI50 is 1.97 µM and the TGI worked out at 11.1 µM.

The compound `CC(=O)OC1=CC(n2cc(F)c(=O)[nH]c2=O)OC(C)C1=O` (configuration not stated) came in with a TGI of over 97.2 µM.

In the case of `NC1(C(=O)OCc2ccccc2)CCCC1`, the TGI is 76.7 µM.

As for `Cn1cnc([N+](=O)[O-])c1S(=O)(=O)Oc1cccc2ccccc12`, the GI50 is 13.1 µM and the total growth inhibition concentration (TGI) was determined as 26.6 µM.

With `Fc1cc2[nH]ncc2c2c3c(c(-c4cn[nH]c4)nc12)CCCC3`, the GI50 is 1.52 µM and the TGI was determined as 5.75 µM.

As to `COc1cc(OC)cc(-c2cc(=O)c3c(OC)c(OC)c(OC)c(OC)c3o2)c1`, the concentration for total growth inhibition (TGI) was over 100 µM.

In the case of `C=C(Br)C(C)(Br)CCC(Br)C(C)(C)Cl` (configuration not stated), the concentration for total growth inhibition (TGI) amounted to 32.7 µM.

Consider `CSc1nc(NC2OCC(OC(C)=O)C(OC(C)=O)C2OC(C)=O)c(N=CC=Nc2c(NC3OCC(OC(C)=O)C(OC(C)=O)C3OC(C)=O)nc(SC)[nH]c2=O)c(=O)[nH]1` (configuration not stated), for which the total growth inhibition concentration (TGI) is over 100 µM.

In the case of `COc1ccc(-c2nnc(COc3ccc(NC(=O)Nc4cc(C(F)(F)F)cc(C(F)(F)F)c4)cc3F)o2)cc1`, the GI50 was 2.42 µM and the TGI worked out at 5.92 µM.

Consider `COc1ccc(-c2nnc(COc3ccc(C(=O)/C=C/c4ccco4)cc3)o2)cc1`, for which the GI50 was 2.32 µM and the TGI stood at 5.26 µM.

For the compound `CC1(C)C2CCC(=O)C1CC2` (configuration not stated), the TGI is over 100 µM.

A further assay relates to SK-MEL-5 melanoma. As to the kind of experiment: DTP human tumour cell line panel, 48 h.
`CCOC(=O)c1cc2nc3ccccc3c(=O)n2c2ccccc12` had a total growth inhibition concentration (TGI) of over 10 µM.

Compound `COc1cc2c(c(OC)c1OC)-c1ccc(OC)c(=O)cc1C(NC(=O)c1ccc(N=[N+]=[N-])cc1)CC2` (configuration not stated) gave a TGI of 1.95 µM.

As to `CCN1CCN(c2nc(C)cc(N(CCNc3ccnc4cc(Cl)ccc34)Cc3ccc4c(c3)OCO4)n2)CC1`, the GI50 was 1.74 µM and the total growth inhibition concentration (TGI) is 3.17 µM.

Consider `COc1c(Cl)c(=O)oc2ccc(Cl)cc12`, for which the total growth inhibition concentration (TGI) was over 100 µM.

In the case of `Cc1cc(I)cc(CN(C)CCCN2CCCCC2)c1O`, the GI50 is 8.5 µM and the TGI was found to be 20.7 µM.

The compound `COc1cc(NCc2ccc3oc(=O)c(-c4ccccc4)nc3c2)cc(OC)c1OC` showed a concentration for total growth inhibition (TGI) of over 10 µM.

As to `CN(C(=O)c1ccc(C(F)(F)F)cc1)c1ccc(Oc2ccc3c(c2)cc(C(=O)N2CCN(Cc4ccc(OC(F)F)cc4)CC2)n3C)nc1`, the GI50 was under 0.0213 µM and the concentration for total growth inhibition (TGI) amounted to 4.82 µM.

Compound `Cc1ccccc1S(=O)(=O)OC1NS(=O)(=O)c2ccccc21` (configuration not stated) registered a TGI of over 100 µM.

As to `Nc1ncnc2n[nH]c(Nc3ccc(F)cc3)c12`, the GI50 was 19.6 µM and the TGI was over 100 µM.

With `CCN(CC)c1ccc(-c2cc(-c3cc(OC)c(OC)c(OC)c3)nc(N3CCOCC3)c2C#N)cc1`, the 50% growth inhibitory concentration (GI50) was 0.219 µM and the total growth inhibition concentration (TGI) was 0.845 µM.

Take `CC(=O)OC1=CC(n2cc(F)c(=O)[nH]c2=O)OC(C)C1=O` (configuration not stated): the TGI was over 100 µM.

On to `NC1(C(=O)OCc2ccccc2)CCCC1`, for which the total growth inhibition concentration (TGI) is 37.4 µM.

Take `Cn1cnc([N+](=O)[O-])c1S(=O)(=O)Oc1cccc2ccccc12`: the GI50 is 13.7 µM and the total growth inhibition concentration (TGI) worked out at 28.8 µM.

For `Fc1cc2[nH]ncc2c2c3c(c(-c4cn[nH]c4)nc12)CCCC3`, the GI50 was 0.552 µM and the TGI is 2.12 µM.

Consider `COc1cc(OC)cc(-c2cc(=O)c3c(OC)c(OC)c(OC)c(OC)c3o2)c1`, for which the concentration for total growth inhibition (TGI) turned out to be 84 µM.

Compound `C=C(Br)C(C)(Br)CCC(Br)C(C)(C)Cl` (configuration not stated) had a concentration for total growth inhibition (TGI) of 32.4 µM.

Take `CSc1nc(NC2OCC(OC(C)=O)C(OC(C)=O)C2OC(C)=O)c(N=CC=Nc2c(NC3OCC(OC(C)=O)C(OC(C)=O)C3OC(C)=O)nc(SC)[nH]c2=O)c(=O)[nH]1` (configuration not stated): the TGI was over 100 µM.

Regarding `COc1ccc(-c2nnc(COc3ccc(NC(=O)Nc4cc(C(F)(F)F)cc(C(F)(F)F)c4)cc3F)o2)cc1`, the GI50 is 1.73 µM and the TGI came out at 3.84 µM.

In the case of `COc1ccc(-c2nnc(COc3ccc(C(=O)/C=C/c4ccco4)cc3)o2)cc1`, the GI50 was 3.16 µM and the concentration for total growth inhibition (TGI) turned out to be 11.1 µM.

For `CC1(C)C2CCC(=O)C1CC2` (configuration not stated), the TGI is over 100 µM.

Another assay relates to EKVX NSCLC. As to the kind of experiment: DTP human tumour cell line panel, 48 h.
Regarding `CCOC(=O)c1cc2nc3ccccc3c(=O)n2c2ccccc12`, the TGI is over 10 µM.

`COc1cc2c(c(OC)c1OC)-c1ccc(OC)c(=O)cc1C(NC(=O)c1ccc(N=[N+]=[N-])cc1)CC2` (configuration not stated) showed a TGI of over 100 µM.

As for `CCN1CCN(c2nc(C)cc(N(CCNc3ccnc4cc(Cl)ccc34)Cc3ccc4c(c3)OCO4)n2)CC1`, the GI50 is 3.14 µM and the TGI is 13.9 µM.

Take `COc1c(Cl)c(=O)oc2ccc(Cl)cc12`: the TGI is over 100 µM.

Regarding `Cc1cc(I)cc(CN(C)CCCN2CCCCC2)c1O`, the GI50 was 16.3 µM and the total growth inhibition concentration (TGI) stood at 37.3 µM.

On to `COc1cc(NCc2ccc3oc(=O)c(-c4ccccc4)nc3c2)cc(OC)c1OC`, for which the concentration for total growth inhibition (TGI) is over 10 µM.

For the compound `CN(C(=O)c1ccc(C(F)(F)F)cc1)c1ccc(Oc2ccc3c(c2)cc(C(=O)N2CCN(Cc4ccc(OC(F)F)cc4)CC2)n3C)nc1`, the 50% growth inhibitory concentration (GI50) was under 0.01 µM and the concentration for total growth inhibition (TGI) is over 100 µM.

Consider `Cc1ccccc1S(=O)(=O)OC1NS(=O)(=O)c2ccccc21` (configuration not stated), for which the total growth inhibition concentration (TGI) is over 100 µM.

Take `Nc1ncnc2n[nH]c(Nc3ccc(F)cc3)c12`: the GI50 is 33.6 µM and the total growth inhibition concentration (TGI) is over 100 µM.

Turning to `CCN(CC)c1ccc(-c2cc(-c3cc(OC)c(OC)c(OC)c3)nc(N3CCOCC3)c2C#N)cc1`, the GI50 was 2.64 µM and the total growth inhibition concentration (TGI) is over 100 µM.

`CC(=O)OC1=CC(n2cc(F)c(=O)[nH]c2=O)OC(C)C1=O` (configuration not stated) returned a concentration for total growth inhibition (TGI) of over 100 µM.

`NC1(C(=O)OCc2ccccc2)CCCC1` registered a concentration for total growth inhibition (TGI) of 59.3 µM.

For `Cn1cnc([N+](=O)[O-])c1S(=O)(=O)Oc1cccc2ccccc12`, the GI50 is 13.9 µM and the TGI stood at 34.8 µM.

For the compound `Fc1cc2[nH]ncc2c2c3c(c(-c4cn[nH]c4)nc12)CCCC3`, the GI50 is 0.795 µM and the TGI came out at 3.98 µM.

Take `COc1cc(OC)cc(-c2cc(=O)c3c(OC)c(OC)c(OC)c(OC)c3o2)c1`: the concentration for total growth inhibition (TGI) was over 100 µM.

Compound `C=C(Br)C(C)(Br)CCC(Br)C(C)(C)Cl` (configuration not stated) returned a total growth inhibition concentration (TGI) of 51.3 µM.

For the compound `CSc1nc(NC2OCC(OC(C)=O)C(OC(C)=O)C2OC(C)=O)c(N=CC=Nc2c(NC3OCC(OC(C)=O)C(OC(C)=O)C3OC(C)=O)nc(SC)[nH]c2=O)c(=O)[nH]1` (configuration not stated), the TGI was over 100 µM.
